# Measurements reported in PMC3856649 (Clinical cancer research : an official journal of the …, 2012).
# Where “and” joins values, the source holds several entries; their conditions need not be identical. Equal entries are not always repeated.
# Legend:
# AAG = settings: cited from earlier work
# [1] = daily oral 150 mg/d in patients with cancer; cited from earlier work
# HSA = HSA (Homo sapiens, UniProt P02768); test: Equilibrium dialysis; type: binding
# [2] = Clinical plasma pharmacokinetics in patients with advanced breast cancer; type: in vivo, human; settings: for Tmax: po, 20 mg
# NOTCH1 = test: In vitro Notch cellular assay; type: cell-based, human
# plasma proteins [3] = tested on: plasma proteins
# plasma proteins [4] = tested on: plasma proteins; remark: listed apart in the source
# in vitro = settings: human, human plasma, pH 7.2
# [5] = target: human α1-acid glycoprotein (AAG) (Homo sapiens, UniProt P02763); test: Equilibrium dialysis, binding in isolated AAG solution; settings: for mean Fu: total drug 500 ng/mL (1,065 nmol/L); for RO4929097 fraction unbound estimated from Equation (A): nK 1.0 × 10^6 L/mol; for maximum binding concentration (nP) of AAG: estimate ± SE
# [6] = given alone, 20 mg orally, median (interquartile range), n = 8
# [7] = single oral dose of 20 mg in 8 patients
# [8] = Homo sapiens, U2OS, 24 h, read-out: inhibition of cellular Notch activity
# Sequence of human α1-acid glycoprotein (AAG) (P02763 19-201): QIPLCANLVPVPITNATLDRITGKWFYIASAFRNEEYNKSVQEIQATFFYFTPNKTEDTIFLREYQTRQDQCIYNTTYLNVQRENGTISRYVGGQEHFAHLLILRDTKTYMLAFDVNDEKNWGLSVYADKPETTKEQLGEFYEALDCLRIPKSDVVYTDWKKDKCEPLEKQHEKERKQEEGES
# Sequence of HSA (P02768 25-609): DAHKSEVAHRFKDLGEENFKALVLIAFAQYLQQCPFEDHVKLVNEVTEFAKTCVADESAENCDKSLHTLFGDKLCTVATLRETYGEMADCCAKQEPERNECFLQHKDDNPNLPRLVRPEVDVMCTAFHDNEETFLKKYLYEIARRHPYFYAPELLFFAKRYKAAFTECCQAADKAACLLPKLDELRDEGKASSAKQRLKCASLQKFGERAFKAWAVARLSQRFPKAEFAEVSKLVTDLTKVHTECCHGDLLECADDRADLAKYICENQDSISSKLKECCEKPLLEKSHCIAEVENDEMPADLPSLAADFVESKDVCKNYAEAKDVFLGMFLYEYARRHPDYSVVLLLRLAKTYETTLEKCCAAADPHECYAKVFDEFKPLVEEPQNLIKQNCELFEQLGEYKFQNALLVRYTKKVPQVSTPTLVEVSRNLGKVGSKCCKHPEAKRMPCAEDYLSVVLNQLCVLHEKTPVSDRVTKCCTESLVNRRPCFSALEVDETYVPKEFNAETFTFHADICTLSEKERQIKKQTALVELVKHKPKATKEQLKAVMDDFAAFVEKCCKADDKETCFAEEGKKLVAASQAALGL
compound,measurement,setting,value
CS(=O)(=O)c1ccc(C(=O)Nc2ccc(Cl)c(-c3ccccn3)c2)c(Cl)c1 [GDC-0449],Kd,"AAG; read-out: Kd for AAG, in vitro equilibrium dialysis",1.5 µM
same,average steady-state plasma concentration of total GDC-0449,[1],approximately 25 μmol/L
same,unbound drug levels as % of the total drug,[1],less than 1%
"CC(C)(C(=O)NCC(F)(F)C(F)(F)F)C(=O)N[C@@H]1C(=O)Nc2ccccc2-c2ccccc21 [RO4929097, RO4929097 (γ-secretase inhibitor)]",Kd,HSA,90.9 µM
CC(C)(C(=O)NCC(F)(F)C(F)(F)F)C(=O)N[C@@H]1C(=O)Nc2ccccc2-c2ccccc21 [RO4929097],Decrease in average systemic exposure to total RO4929097,[2]; co-administered with GDC-0449,8.3 fold
same,Decrease in average unbound RO4929097 exposure,[2]; co-administered with GDC-0449,1.7 fold
same,Unbound RO4929097 AUC0–24h,[2]; [6],52.8 (33.2–64.9) nmol/L h
same,Unbound RO4929097 Cmax,[2]; [6],4.3 (2.7–5.6) nmol/L
same,AUC(0-t),"[2]; human, plasma, oral, Total RO4929097 AUC0–24h, in combination with GDC-0449 150 mg orally, median (interquartile range), n = 8",723 nM·h
same,Tmax,"[2]; human, plasma, Total RO4929097 Tmax, given alone, 20 mg orally, median (interquartile range), n = 8",2.5 h
same,Tmax,"[2]; human, plasma, Unbound RO4929097 Tmax, given alone, 20 mg orally, median (interquartile range), n = 8",1.5 h
same,Interindividual variability of total RO4929097 AUC0-24h (max/min),[2]; single oral dose of 20 mg,16 fold and up to 16 fold
same,Interindividual variability of total RO4929097 Cmax (max/min),[2]; single oral dose of 20 mg,15 fold
same,Interindividual variability of unbound RO4929097 AUC0-24h (max/min),[2]; single oral dose of 20 mg,4 fold
same,Interindividual variability of unbound RO4929097 Cmax (max/min),[2]; single oral dose of 20 mg,3 fold
same,"Unbound RO4929097 AUC0-24h, range among patients",[2]; single oral dose of 20 mg,28.1 to 113.0 nM·h
same,"Unbound RO4929097 Cmax, range among patients",[2]; single oral dose of 20 mg,1.9 to 6.1 nM
same,"Coefficient variation of AUC0-24h, total RO4929097",[2]; [7],99%
same,"Coefficient variation of AUC0-24h, unbound RO4929097",[2]; [7],49%
same,RO4929097 Notch-inhibitory activity in presence of AAG,"NOTCH1; AAG 0.5, 1.4, […], total RO4929097 500 and 5,000 nmol/L",significantly reduced
same,inhibition at 0.05 µM,NOTCH1; [8],2.1%
same,inhibition at 0.5 µM,NOTCH1; [8],62%
same,inhibition at 5 µM,NOTCH1; [8],73%
same,IC50,"NOTCH1; Homo sapiens, U2OS, read-out: unbound RO4929097 concentration for 50% inhibition of the maximum Notch activity (IC50)",0.109 µM
same,bound in human plasma,plasma proteins [3],> 97%
same,intraindividual variability in RO4929097 fraction unbound,plasma proteins [4]; during the treatment in individual patient,up to 5 fold
same,interindividual variability in RO4929097 fraction unbound,"plasma proteins [4]; patients, alone or in combination with GDC-0449",up to 10 fold
same,fraction unbound at 24 h,in vitro,0.047
same,mean Fu,[5]; AAG 0.2 mg/mL,19.0%
same,RO4929097 fraction unbound estimated from Equation (A),[5]; AAG 0.5 mg/mL,8%
same,maximum binding concentration (nP) of AAG,"[5]; AAG 1.4 mg/mL, Equation (C), GDC-0449 0 μmol/L",23.1 µmol/L and 23.1 ± 0.9 µmol/L
same,maximum binding concentration (nP) of AAG,"[5]; AAG 1.4 mg/mL, GDC-0449 5 μmol/L",25.3 ± 1.1 µmol/L
same,maximum binding concentration (nP) of AAG,"[5]; AAG 1.4 mg/mL, GDC-0449 25 μmol/L",34.9 ± 2.0 µmol/L
same,RO4929097 fraction unbound estimated from Equation (A),[5]; AAG 1.4 mg/mL,3%
same,mean Fu,[5]; AAG […],1.1%
same,total binding constant (nK) for AAG,"[5]; Equation (A), Fu versus protein concentration, nonlinear regression",1e+06 L/mol and 1.1e+06 L/mol
Cc1ccc(NC(=O)c2ccc(CN3CCN(C)CC3)cc2)cc1Nc1nccc(-c2cccnc2)n1 [imatinib],binding affinity for AAG (Ka),AAG,1.7e+06 L/mol
